In patent publication US20240058450A1, “BCL-XL Inhibitory Compounds Having Low Cell Permeability and Antibody Drug Conjugates Including the Same” (AbbVie Inc., priority 2014, published 2024):
Like-named read-outs stand apart in the source and are kept apart here.

What was measured:
circulating platelets [1] = test: Number of circulating platelets in mice after a single intraperitoneal injection (thrombocytopenia); settings: for thrombocytopenia: after injection of the compound; for Lowest thrombocyte count / Time to lowest count: single intraperitoneal injection
circulating platelets [2] = settings: mouse, in vivo

| time of maximal thrombocytopenia following injection (circulating platelets [1]) | thrombocytopenia (circulating platelets [1]) | platelet number after dosing (circulating platelets [1]; dose of 0.61 mg/kg) | decrease of platelet number (circulating platelets [1]; dose of 0.61 mg/kg, from normal count of approximately 6*10^5/mm^3) | Lowest thrombocyte count (circulating platelets [1]; dose 0.61 mg/kg) | Time to lowest count (circulating platelets [1]; dose 0.61 mg/kg) | Lowest thrombocyte count (circulating platelets [1]; dose 25 mg/kg) | Time to lowest count (circulating platelets [1]; dose 25 mg/kg) | thrombocytopenia (circulating platelets [2]) | time of maximal thrombocytopenia following injection (circulating platelets [2]) | Time to lowest count (circulating platelets [2]; ip, 100 mg/kg) | Lowest thrombocyte count (circulating platelets [2]; ip, 100 mg/kg, 6 h) | Compound |
| --- | --- | --- | --- | --- | --- | --- | --- | --- | --- | --- | --- | --- |
| 6 h | caused thrombocytopenia | 6*10^3 /mm^3 | 100 fold | 6 1/10^3 of the platelet#/mm^3 | 6 h | – | – | – | – | – | – | CNCCOC12CC3(C)CC(C)(CC(Cn4ncc(-c5ccc(N6CCc7cccc(C(=O)Nc8nc9ccccc9s8)c7C6)nc5C(=O)O)c4C)(C3)C1)C2 [Example 1.13.7, 6-[8-(1,3-benzothiazol-2-ylcarbamoyl)-3,4-dihydroisoquinolin-2 (1H)-yl]-3-[1-({3,5-dimethyl-7-[2-(methylamino)ethoxy]tricyclo[3.3.1.1^3,7]dec-1-yl}methyl)-5-methyl-1H-pyrazol-4-yl]pyridine-2-carboxylic acid] |
| 6 h | caused thrombocytopenia | – | – | – | – | 9 1/10^3 of the platelet#/mm^3 | 6 h | – | – | – | – | Cc1c(-c2ccc(N3CCc4cccc(C(=O)Nc5nc6ccccc6s5)c4C3)nc2C(=O)O)cnn1CC12CC3CC(CC(C3)C1)C2 [Example A-1331852, reference compound] |
| – | – | – | – | – | – | – | – | caused thrombocytopenia | 6 h | 6 h | 10 1/10^3 of the platelet#/mm^3 | CC1(C)CCC(c2ccc(Cl)cc2)=C(CN2CCN(c3ccc(C(=O)NS(=O)(=O)c4ccc(N[C@H](CCN5CCOCC5)CSc5ccccc5)c(S(=O)(=O)C(F)(F)F)c4)cc3)CC2)C1 [Navitoclax] |
